Measured values: the supplement of paper PMC10307832

Columns and labels:
Assay in all cases: relative viability (nuclei count vs DMSO), 5 days (fraction); higher = more cells survive
XMD14-99 + Palbociclib = compound: CN1CCN(CC1)C2=CC(=C(C=C2)NC3=NC(=C(S3)C(=O)C4=C(C=CC=C4Cl)Cl)N)OC [XMD14-99] + CC(=O)c1c(C)c2cnc(Nc3ccc(N4CCNCC4)cn3)nc2n(C2CCCC2)c1=O [Palbociclib] (partner 0.5 µM)
How it was run: (§1)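 Relative viability was taken as the ratio of nuclei in treated wells to nuclei in vehicle wells. Lung cancer cell lines in 1536-well plates received compounds by pin tool one day after seeding, either one drug alone or a fixed anchor-drug dose plus five library-drug doses (not always all listed) in √10 steps. Nuclei were counted on 4× images after 5 days of treatment, and values are medians of duplicate plates.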

AZD1208 + Vorinostat = compound: N[C@@H]1CCCN(c2c(/C=C3\SC(=O)NC3=O)cccc2-c2ccccc2)C1 [AZD1208] + O=C(CCCCCCC(=O)Nc1ccccc1)NO [Vorinostat] (partner 1 µM)
How it was run: as §1

XMD14-99 + Crizotinib = compound: CN1CCN(CC1)C2=CC(=C(C=C2)NC3=NC(=C(S3)C(=O)C4=C(C=CC=C4Cl)Cl)N)OC [XMD14-99] + C[C@@H](Oc1cc(-c2cnn(C3CCNCC3)c2)cnc1N)c1c(Cl)ccc(F)c1Cl [Crizotinib] (partner 1 µM)
How it was run: as §1

AZD1208 + Bortezomib = compound: N[C@@H]1CCCN(c2c(/C=C3\SC(=O)NC3=O)cccc2-c2ccccc2)C1 [AZD1208] + CC(C)C[C@H](NC(=O)[C@H](Cc1ccccc1)NC(=O)c1cnccn1)B(O)O [Bortezomib] (partner 0.002 µM)
How it was run: as §1

Cell Line	relative viability (XMD14-99 + Palbociclib; first compound 0.08 µM)	relative viability (XMD14-99 + Palbociclib; first compound 0.8 µM)	relative viability (XMD14-99 + Palbociclib; first compound 2.53 µM)	relative viability (XMD14-99 + Palbociclib; first compound 8 µM)	relative viability (AZD1208 + Vorinostat; first compound 0.08 µM)	relative viability (AZD1208 + Vorinostat; first compound 0.253 µM)	relative viability (AZD1208 + Vorinostat; first compound 0.8 µM)	relative viability (AZD1208 + Vorinostat; first compound 2.53 µM)	relative viability (AZD1208 + Vorinostat; first compound 8 µM)	relative viability (XMD14-99 + Crizotinib; first compound 0.08 µM)	relative viability (XMD14-99 + Crizotinib; first compound 0.8 µM)	relative viability (XMD14-99 + Crizotinib; first compound 2.53 µM)	relative viability (XMD14-99 + Crizotinib; first compound 8 µM)	relative viability (AZD1208 + Bortezomib; first compound 0.08 µM)	relative viability (AZD1208 + Bortezomib; first compound 0.253 µM)	relative viability (AZD1208 + Bortezomib; first compound 0.8 µM)	relative viability (AZD1208 + Bortezomib; first compound 2.53 µM)	relative viability (AZD1208 + Bortezomib; first compound 8 µM)
LXF-289	0.625	0.571	0.55	0.575	0.791	0.849	0.701	0.715	0.832	0.814	0.802	0.814	0.712	1.04	1.1	0.999	1.07	1.15
NCI-H23	0.519	0.541	0.529	0.454	0.508	0.629	0.614	0.602	0.5	0.45	0.447	0.461	0.351	1.01	1.07	0.926	1.14	0.634
NCI-H322M	0.449	0.523	0.472	0.514	0.934	0.868	–	0.837	0.821	0.927	0.972	0.905	0.848	1.21	1.31	1.21	1.15	1.25
NCI-H441	0.223	0.19	0.225	0.22	0.742	0.757	0.62	0.616	0.711	0.596	0.797	0.661	0.494	0.322	0.593	0.419	0.455	0.419
NCI-H460	0.156	0.21	0.164	0.12	0.731	0.858	0.732	0.708	0.737	0.876	0.888	0.955	0.667	1.04	1.63	1.06	1.13	0.925
NCI-H520	0.174	0.186	0.239	0.222	0.735	0.73	0.711	0.768	0.449	0.734	0.694	0.724	0.648	0.597	0.718	0.311	0.428	0.399
NCI-H647	0.408	0.459	0.505	0.364	0.521	0.701	0.643	0.428	0.256	0.948	0.928	1.01	0.741	1.05	1.12	0.902	0.774	0.774
NCI-H650	0.341	0.337	0.34	0.38	0.436	0.379	0.47	0.414	0.351	0.613	0.728	0.684	0.623	1.16	0.774	0.788	0.438	0.664
NCI-H661	0.406	0.452	0.386	0.358	0.796	0.775	0.827	0.82	0.917	0.897	–	0.894	0.838	0.665	0.817	0.724	0.759	0.852
NCI-H727	0.691	0.652	0.609	0.544	0.925	1.14	1.11	1.11	1.03	0.889	0.704	0.561	0.381	0.641	0.895	0.804	0.882	0.697
NCI-H838	0.221	0.217	0.226	0.213	0.679	0.661	0.639	0.682	0.689	0.877	0.798	0.82	0.557	0.873	0.94	0.714	0.8	0.692
NCI-H1355	0.393	0.419	0.383	0.331	0.638	0.672	0.558	0.603	0.544	1.15	1.11	0.949	0.879	1.29	1.09	1.15	1.2	1.04
NCI-H1437	0.307	0.311	0.252	0.221	0.805	0.93	0.933	1	0.857	0.843	0.905	0.822	0.684	0.542	0.754	0.584	0.42	0.444
NCI-H1650	0.389	0.328	0.345	0.306	0.635	0.464	0.643	0.588	0.472	1	0.951	1.09	0.849	0.201	0.19	0.226	0.199	0.192
NCI-H1651	0.535	0.535	0.535	0.522	0.583	0.602	–	0.561	0.556	0.869	0.799	0.934	0.825	0.978	0.925	0.858	0.96	0.816
NCI-H1666	0.626	0.564	0.63	0.666	1.06	1.02	0.887	0.966	0.908	0.926	0.899	0.779	0.575	0.828	0.745	0.783	0.637	0.579
NCI-H1734	0.355	0.338	0.379	0.355	0.731	0.739	0.756	0.663	0.599	0.634	0.713	0.618	0.638	0.831	1.05	0.811	0.991	0.611
NCI-H1755	0.477	0.458	0.474	0.476	0.79	0.893	0.604	0.685	0.555	0.846	0.878	0.825	0.614	0.97	1.06	0.96	1.02	0.904

Cell Line	relative viability (XMD14-99 + Palbociclib; first compound 0.08 µM)	relative viability (XMD14-99 + Palbociclib; first compound 0.8 µM)	relative viability (XMD14-99 + Palbociclib; first compound 2.53 µM)	relative viability (XMD14-99 + Palbociclib; first compound 8 µM)	relative viability (AZD1208 + Vorinostat; first compound 0.08 µM)	relative viability (AZD1208 + Vorinostat; first compound 0.253 µM)	relative viability (AZD1208 + Vorinostat; first compound 0.8 µM)	relative viability (AZD1208 + Vorinostat; first compound 2.53 µM)	relative viability (AZD1208 + Vorinostat; first compound 8 µM)	relative viability (XMD14-99 + Crizotinib; first compound 0.08 µM)	relative viability (XMD14-99 + Crizotinib; first compound 0.8 µM)	relative viability (XMD14-99 + Crizotinib; first compound 2.53 µM)	relative viability (XMD14-99 + Crizotinib; first compound 8 µM)	relative viability (AZD1208 + Bortezomib; first compound 0.08 µM)	relative viability (AZD1208 + Bortezomib; first compound 0.253 µM)	relative viability (AZD1208 + Bortezomib; first compound 0.8 µM)	relative viability (AZD1208 + Bortezomib; first compound 2.53 µM)	relative viability (AZD1208 + Bortezomib; first compound 8 µM)
NCI-H1915	0.555	0.552	0.516	0.517	0.545	0.512	0.525	0.464	0.434	1.02	0.877	0.812	0.805	0.976	1.07	0.956	0.94	1.06
NCI-H1975	0.597	0.614	0.618	0.448	0.708	0.799	0.705	0.735	0.767	0.934	0.984	0.902	0.74	0.415	0.404	0.304	0.353	0.357
NCI-H1993	0.7	0.682	0.533	0.625	0.584	0.63	0.726	0.548	0.501	0.952	0.847	0.792	0.68	–	1.04	0.925	0.998	0.888
NCI-H2009	0.358	0.319	0.26	0.236	0.747	0.777	0.698	0.788	0.67	1	0.939	0.997	0.767	1.01	1.09	0.968	0.832	1.02
NCI-H2023	0.342	0.409	0.374	0.264	0.627	0.769	0.517	0.689	0.571	0.731	0.648	0.667	0.495	0.888	1.02	0.983	0.695	0.849
NCI-H2085	0.453	0.447	0.462	0.41	0.796	0.821	0.749	0.82	0.751	0.833	0.814	0.843	0.56	1.07	1.2	0.938	1.14	1.05
NCI-H2087	0.198	0.279	0.236	0.246	0.789	0.795	0.752	0.73	0.406	0.773	0.896	0.632	0.463	0.827	1.01	0.846	0.941	0.909
NCI-H2126	0.326	0.337	0.37	0.362	0.745	0.669	0.676	0.535	0.563	1.01	1.02	0.979	0.937	1.1	1.14	1.09	1.07	1.1
NCI-H2228	0.749	0.56	0.774	0.278	0.647	0.624	0.793	0.448	0.464	0.37	0.447	0.48	0.301	1.15	1.15	0.865	–	0.704
NCI-H2347	0.439	0.43	0.4	0.416	0.531	0.767	0.533	0.599	0.803	0.803	0.531	0.737	0.501	0.933	0.734	0.822	0.791	1.08
NCI-H2405	0.512	0.578	0.557	0.503	1.13	1.04	0.965	1.01	0.932	0.84	0.858	0.863	0.674	0.986	1.01	0.936	1.01	0.989
NCI-H3122	0.197	0.167	0.213	0.147	0.97	0.943	0.924	1.05	0.524	0.267	0.229	0.262	0.251	1.02	1.04	1.04	1.06	1.06
PC-3 [JPC-3]	0.574	0.501	0.59	0.538	1.13	0.746	0.857	0.909	0.926	1.05	0.955	0.916	0.781	0.833	0.972	0.887	0.927	0.855
PC-14	0.567	0.527	0.5	0.24	0.674	0.78	0.719	0.687	0.604	0.824	0.796	0.866	0.714	0.963	0.954	0.848	1.01	0.907
RERF-LC-KJ	1.01	1.04	0.952	0.9	0.646	0.668	0.7	0.658	0.598	0.891	0.836	0.845	0.699	1.1	1.21	1.06	1	0.818
SK-LU-1	0.418	0.42	0.356	0.266	0.776	0.785	0.73	0.783	0.736	0.788	0.923	0.796	0.58	1.36	1.24	1.09	0.996	0.812
SW 1573	0.342	0.44	0.421	0.36	0.505	0.862	0.456	0.479	0.404	0.792	0.878	0.793	0.757	0.963	1.14	0.935	0.907	0.717
